The values below come from patent US20090062294A1, “HETEROARYL-SUBSTITUTED UREA MODULATORS OF FATTY ACID AMIDE HYDROLASE” (priority 2007, published 2009).

Test [1] has as its target T1, FAAH (Homo sapiens, UniProt O00519).
T1 sequence (O00519 1-579): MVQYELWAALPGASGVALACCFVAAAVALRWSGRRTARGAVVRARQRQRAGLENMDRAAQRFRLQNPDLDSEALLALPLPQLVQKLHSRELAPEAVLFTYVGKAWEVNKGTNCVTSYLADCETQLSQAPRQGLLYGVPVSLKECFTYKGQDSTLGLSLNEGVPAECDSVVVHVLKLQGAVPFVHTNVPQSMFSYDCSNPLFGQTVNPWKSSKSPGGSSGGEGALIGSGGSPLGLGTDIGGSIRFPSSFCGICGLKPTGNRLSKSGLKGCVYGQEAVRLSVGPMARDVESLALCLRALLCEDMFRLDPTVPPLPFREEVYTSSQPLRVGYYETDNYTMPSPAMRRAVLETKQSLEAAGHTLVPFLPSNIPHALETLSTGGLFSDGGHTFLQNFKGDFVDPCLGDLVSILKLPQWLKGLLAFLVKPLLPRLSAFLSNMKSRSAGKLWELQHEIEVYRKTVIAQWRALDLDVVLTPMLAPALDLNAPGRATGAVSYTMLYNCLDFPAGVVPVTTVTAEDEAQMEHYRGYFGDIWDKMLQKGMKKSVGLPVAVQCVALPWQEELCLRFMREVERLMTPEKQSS
The test is described as follows: Assay Method 1: FAAH assay, 3H-anandamide hydrolysis in homogenate of T84 cells or SK-N-MC cells transfected with human FAAH. The class given is biochemical. Conditions: average of results, > = solubility limit or highest concentration tested. The method, boiled down: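 Hydrolysis of ^3H-anandamide (80 nM final, added last) was measured over 1 h at rt, using test compound with homogenate of T84 cells or human FAAH-transfected SK-N-MC cells. The homogenization buffer was 125 mM Tris, 1 mM EDTA, 0.02% Triton X-100, pH 9. Unbound labelled ethanolamine was passed through charcoal filters and scintillation-counted.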

Test [2] deals with T2, rat FAAH (Rattus norvegicus, UniProt P97612).
T2 sequence (P97612 1-579): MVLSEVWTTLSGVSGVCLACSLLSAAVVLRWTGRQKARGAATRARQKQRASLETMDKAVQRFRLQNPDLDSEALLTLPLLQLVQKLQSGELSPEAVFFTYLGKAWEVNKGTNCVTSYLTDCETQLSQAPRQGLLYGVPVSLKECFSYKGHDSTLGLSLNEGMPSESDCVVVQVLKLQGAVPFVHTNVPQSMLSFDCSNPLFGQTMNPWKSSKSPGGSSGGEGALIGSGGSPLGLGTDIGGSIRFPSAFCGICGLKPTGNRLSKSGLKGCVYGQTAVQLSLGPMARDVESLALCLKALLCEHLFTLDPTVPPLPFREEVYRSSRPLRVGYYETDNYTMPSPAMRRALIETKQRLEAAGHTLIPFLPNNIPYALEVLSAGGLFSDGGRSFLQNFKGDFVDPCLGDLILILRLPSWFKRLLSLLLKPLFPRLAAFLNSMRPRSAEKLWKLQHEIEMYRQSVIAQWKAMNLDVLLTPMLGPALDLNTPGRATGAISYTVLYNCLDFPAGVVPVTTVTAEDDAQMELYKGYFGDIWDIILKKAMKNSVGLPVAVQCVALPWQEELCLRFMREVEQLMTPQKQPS
The test is described as follows: Assay Method 2: FAAH assay, 3H-anandamide hydrolysis in homogenate of SK-N-MC cells transfected with rat FAAH. Conditions: average of results, > = solubility limit or highest concentration tested. The class given is biochemical. The method, boiled down:
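Read-out is scintillation counting of [3H]-ethanolamine passing through activated charcoal, after 1 h at rt with 80 nM final [3H]-AEA. Enzyme source: lysate of G418-selected SK-N-MC clones expressing rat FAAH, homogenized in Tris/EDTA/glycerol/0.02% Triton buffer, pH 9.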

Structures can show the parent of a compound that is named as a salt.

As to `O=C(Nc1cc[nH]n1)N1CCN(Cc2cccc(Oc3cccc(C(F)(F)F)c3)c2)CC1` [Example 55, 4-[3-(3-Trifluoromethyl-phenoxy)-benzyl]-piperazine-1-carboxylic acid (1H-pyrazol-3-yl)-amide trifluoroacetic acid salt], the IC50 in test [1] is 7750 nM; in test [2], 764 nM.

Consider `O=C(Nc1cc[nH]n1)N1CCN(Cc2ccc(F)c(Oc3ccccc3)c2)CC1` [Example 56, 4-(4-Fluoro-3-phenoxy-benzyl)-piperazine-1-carboxylic acid (1H-pyrazol-3-yl)-amide trifluoroacetic acid salt], for which the figures for the half-inhibitory concentration (IC50) in test [1] and in test [2] were 1500 nM and 550 nM, respectively.

In the case of `O=C(Nc1cnccn1)N1CCN(Cc2cccc(Oc3ccc(Cl)c(Cl)c3)c2)CC1` [Example 59, 4-[3-(3,4-Dichloro-phenoxy)-benzyl]-piperazine-1-carboxylic acid pyrazin-2-ylamide trifluoroacetic acid salt], the IC50 in test [1] came out at 270 nM; in test [2] it was 22 nM.

In the case of `O=C(Nc1cnccn1)N1CCN(Cc2cccc(Oc3cccc(C(F)(F)F)c3)c2)CC1` [Example 60, 4-[3-(3-Trifluoromethyl-phenoxy)-benzyl]-piperazine-1-carboxylic acid pyrazin-2-ylamide trifluoroacetic acid salt], the IC50 in test [1] came out at 166 nM; in test [2], 16 nM.

Consider `O=C(Nc1cnccn1)N1CCN(Cc2cccc(OC(F)(F)F)c2)CC1` [Example 61, 4-(3-Trifluoromethoxy-benzyl)-piperazine-1-carboxylic acid pyrazin-2-ylamide trifluoroacetic acid salt], for which the half-inhibitory concentration (IC50) in test [1] came out at 2300 nM; in test [2], 7000 nM.

As for `O=C(Nc1noc2ccccc12)N1CCC(Cc2ccc3c(c2)OC(F)(F)O3)CC1` [Example 62, N-1,2-Benzisoxazol-3-yl-4-[(2,2-difluoro-1,3-benzodioxol-5-yl)methyl]piperidine-1-carboxamide], the IC50 in test [1] worked out at 41 nM; in test [2] it was 35 nM.

With `Cc1ccccc1C#Cc1cccc(CN2CCN(C(=O)Nc3noc4ccccc34)CC2)c1` [Example 63, 4-(3-o-Tolylethynyl-benzyl)-piperazine-1-carboxylic acid benzo[d]isoxazol-3-ylamide], the values for the half-maximal inhibitory concentration (IC50) in test [1] and in test [2] were 70 nM and 77 nM, respectively.

In the case of `O=C(Nc1noc2ccccc12)N1CCN(Cc2cccc(C#Cc3ccccc3C(F)(F)F)c2)CC1` [Example 64, N-1,2-Benzisoxazol-3-yl-4-(3-{[2-(trifluoromethyl)-phenyl]-ethynyl}benzyl)-piperazine-1-carboxamide], the 50% inhibitory concentration (IC50) was 105 nM in test [1] and 80 nM in test [2].

Turning to `COc1ccccc1C#Cc1cccc(CN2CCN(C(=O)Nc3noc4ccccc34)CC2)c1` [Example 65, N-1,2-Benzisoxazol-3-yl-4-{3-[(2-methoxyphenyl)-ethynyl]-benzyl}-piperazine-1-carboxamide], the half-maximal inhibitory concentration (IC50) in test [1] was 395 nM; in test [2] it was 300 nM.

With `O=C(Nc1noc2ccccc12)N1CCN(Cc2cccc(C#Cc3ccccc3F)c2)CC1` [Example 66, N-1,2-Benzisoxazol-3-yl-4-{3-[(2-fluorophenyl)ethynyl]-benzyl}-piperazine-1-carboxamide], the values for the IC50 in test [1] and in test [2] were 24 nM and 46 nM, respectively.

As for `O=C(Nc1noc2ccccc12)N1CCN(Cc2cccc(C#Cc3ccccc3Br)c2)CC1` [Example 67, N-1,2-Benzisoxazol-3-yl-4-{3-[(2-bromophenyl)-ethynyl]benzyl}-piperazine-1-carboxamide], the IC50 in test [1] was found to be 6 nM; in test [2], 52 nM.

As for `C#Cc1cccc(CN2CCN(C(=O)Nc3noc4ccccc34)CC2)c1` [Example 68, 4-(3-Ethynyl-benzyl)-piperazine-1-carboxylic acid benzo[d]isoxazol-3-ylamide], the half-inhibitory concentration (IC50) in test [1] was determined as 16 nM; in test [2], 315 nM.

For the compound `CN(C)CC#Cc1cccc(CN2CCN(C(=O)Nc3noc4ccccc34)CC2)c1` [Example 69, N-1,2-Benzisoxazol-3-yl-4-{3-[3-(dimethylamino)prop-1-yn-1-yl]benzyl}-piperazine-1-carboxamide], the IC50 was determined as 44 nM in test [1] and 2000 nM in test [2].

For `O=C(Nc1noc2ccccc12)N1CCN(Cc2cccc(C#CC3CCCCC3)c2)CC1` [Example 70, N-1,2-Benzisoxazol-3-yl-4-[3-(cyclohexylethynyl)benzyl]-piperazine-1-carboxamide], the half-maximal inhibitory concentration (IC50) in test [1] and in test [2] was 46 nM in each case.

Turning to `O=C(Nc1noc2ccccc12)N1CCN(Cc2cccc(C#CC3CCCC3)c2)CC1` [Example 71, N-1,2-Benzisoxazol-3-yl-4-[3-(cyclopentylethynyl)benzyl]-piperazine-1-carboxamide], the concentration for half-maximal inhibition (IC50) in test [1] came to 13 nM; in test [2], 50 nM.

Consider `O=C(Nc1noc2ccccc12)N1CCN(Cc2cccc(C#Cc3ccccc3Cl)c2)CC1` [Example 72, N-1,2-Benzisoxazol-3-yl-4-{3-[(2-chlorophenyl)-ethynyl]benzyl}-piperazine-1-carboxamide], for which the concentration for half-maximal inhibition (IC50) in test [1] was 24 nM; in test [2], 30 nM.

Regarding `O=C(Nc1noc2ccccc12)N1CCN(Cc2cccc(C#Cc3cccc(Cl)c3)c2)CC1` [Example 73, N-1,2-Benzisoxazol-3-yl-4-{3-[(3-chlorophenyl)ethynyl]benzyl}-piperazine-1-carboxamide], the IC50 in test [1] was 24 nM; in test [2], 33 nM.

For the compound `O=C(Nc1noc2ccccc12)N1CCN(Cc2cccc(C#Cc3ccc(Cl)cc3)c2)CC1` [Example 74, N-1,2-Benzisoxazol-3-yl-4-{3-[(4-chlorophenyl)ethynyl]benzyl}-piperazine-1-carboxamide], the IC50 in test [1] stood at 410 nM; in test [2], 325 nM.

For the compound `O=C(Nc1noc2ccccc12)N1CCN(Cc2cccc(C#Cc3ccc(Cl)c(Cl)c3)c2)CC1` [Example 75, N-1,2-Benzisoxazol-3-yl-4-{3-[(3,4-dichlorophenyl)ethynyl]-benzyl}-piperazine-1-carboxamide], the 50% inhibitory concentration (IC50) was 123 nM in test [1] and 110 nM in test [2].

Turning to `O=C(Nc1noc2ccccc12)N1CCN(Cc2cccc(C#CC3CC3)c2)CC1` [Example 76, N-1,2-Benzisoxazol-3-yl-4-[3-(cyclopropylethynyl)benzyl]-piperazine-1-carboxamide], the IC50 was 10 nM in test [1] and 400 nM in test [2].

Turning to `O=C(Nc1noc2ccccc12)N1CCN(Cc2cccc(C#Cc3ccsc3)c2)CC1` [Example 77, N-1,2-Benzisoxazol-3-yl-4-[3-(thiophen-3-ylethynyl)benzyl]-piperazine-1-carboxamide], the IC50 in test [1] turned out to be 12 nM; in test [2], 64 nM.

`O=C(Nc1cnccn1)N1CCN(Cc2cccc(C#Cc3ccccc3Cl)c2)CC1` [Example 78, 4-{3-[(2-Chlorophenyl)ethynyl]benzyl}-N-pyrazin-2-ylpiperazine-1-carboxamide hydrochloride salt]: the 50% inhibitory concentration (IC50) in test [1] is 59 nM; in test [2], 410 nM.

Take `O=C(Nc1cccnn1)N1CCN(Cc2cccc(C#Cc3ccccc3Cl)c2)CC1` [Example 79, 4-{3-[(2-Chlorophenyl)ethynyl]benzyl}-N-pyridazin-3-ylpiperazine-1-carboxamide]: the half-inhibitory concentration (IC50) in test [1] was 46 nM; in test [2] it was 320 nM.

For the compound `Cc1cnc(NC(=O)N2CCN(Cc3cccc(C#Cc4ccccc4Cl)c3)CC2)cn1` [Example 80, 4-{3-[(2-Chlorophenyl)ethynyl]benzyl}-N-(5-methylpyrazin-2-yl)piperazine-1-carboxamide], the values for the IC50 in test [1] and in test [2] were 5000 nM and 4000 nM, respectively.

Take `O=C(Nc1noc2ccccc12)N1CCN(Cc2cccc(C#Cc3ccc(Cl)cc3Cl)c2)CC1` [Example 81, N-1,2-Benzisoxazol-3-yl-4-{3-[(2,4-dichlorophenyl)-ethynyl]benzyl}-piperazine-1-carboxamide]: the concentration for half-maximal inhibition (IC50) in test [1] was 453 nM; in test [2], 238 nM.

As a reminder, the IC50 is the concentration that gives 50% inhibition. Read a high IC50 as weaker potency.
